Measurements as given in US5869449A, “38-decarboxy-38-hydroxymethyl derivatives of teiocoplanin antibiotics and a process for preparing them” (Gruppo Lepetit S.P.A., priority 1990, dated 1999).

Assay: Acid-base titration (pK MCS)
Format: physicochemical
Settings: methyl cellosolve (MCS) H2O 4/1, excess 0.01M HCl, titrated with 0.01N NaOH; one basic ionizable function

## 38-Decarboxy-38-hydroxymethyl of teicoplanin pseudoaglycon 2 [Example 3]
  pKMCS: 6.8

## 38-Decarboxy-38-hydroxymethyl of teicoplanin pseudoaglycon 1 [Example 2]
  pKMCS: 6.9
